According to ChEMBL document CHEMBL1201862, “PubChem BioAssay data set” (2004):
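Compound exposure: 48 hours, 5 concentrations, 96-well plates. GI50 is the concentration that inhibits growth by half.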 Activity calls are given as the source filed them. No stated cut-off is given here; in the data, active = GI50 up to about 1.1 µM and inactive = higher.

How the values were obtained:
Assay in all cases: DTP human tumour cell line panel, 48 h
[1] = test system: T47D
[2] = test system: SNB-19
[3] = test system: NCI-H23
[4] = test system: UACC-62
[5] = test system: MDA-MB-435
[6] = test system: SF-539
[7] = test system: PC-3
[8] = test system: NCI/ADR-RES
[9] = test system: K562
[10] = test system: A549
[11] = test system: CAKI-1
[12] = test system: A498
[13] = test system: 786-0
[14] = test system: DU-145
[15] = test system: SF-295
[16] = test system: UACC-257
[17] = test system: HOP-92
[18] = test system: SNB-75
[19] = test system: HCT-116
[20] = test system: Malme-3M
[21] = test system: SK-MEL-5
[22] = test system: MCF7
[23] = test system: ACHN
[24] = test system: M14
[25] = test system: Hs-578T
[26] = test system: EKVX
[27] = test system: HCT-15
[28] = test system: OVCAR-5
[29] = test system: SW-620
[30] = test system: OVCAR-8
[31] = test system: UO-31
[32] = test system: MDA-MB-231
[33] = test system: MDA-N
[34] = test system: OVCAR-4
[35] = test system: OVCAR-3
[36] = test system: MOLT-4
[37] = test system: IGROV-1
[38] = test system: HOP-62
[39] = test system: SN12C
[40] = test system: BT-549
[41] = test system: CCRF-CEM
[42] = test system: RXF 393
[43] = test system: SF-268
[44] = test system: HL-60
[45] = test system: SR
[46] = test system: SK-MEL-2
[47] = test system: NCI-H460
[48] = test system: TK-10
[49] = test system: LOX IMVI
[50] = test system: U-251
[51] = test system: COLO 205
[52] = test system: HCC 2998
[53] = test system: SK-OV-3
[54] = test system: SK-MEL-28
[55] = test system: RPMI-8226
[56] = test system: HT-29
[57] = test system: NCI-H226
[58] = test system: NCI-H522
[59] = test system: KM12

SMILES: Nc1nc(O)c(N)c(NCCOCP(=O)(O)O)n1
- GI50 [1]: > 100 µM (inactive)
- GI50 [2]: > 100 µM (inactive)
- GI50 [3]: > 57.8 µM (inactive)
- GI50 [4]: > 57.1 µM (inactive)
- GI50 [5]: > 100 µM (inactive)
- GI50 [6]: > 100 µM (inactive)
- GI50 [7]: > 100 µM (inactive)
- GI50 [8]: > 100 µM (inactive)
- GI50 [9]: > 100 µM (inactive)
- GI50 [10]: > 100 µM (inactive)
- GI50 [11]: > 100 µM (inactive)
- GI50 [12]: > 100 µM (inactive)
- GI50 [13]: > 100 µM (inactive)
- GI50 [14]: > 100 µM (inactive)
- GI50 [15]: > 100 µM (inactive)
- GI50 [16]: > 100 µM (inactive)
- GI50 [17]: > 100 µM (inactive)
- GI50 [18]: > 65.6 µM (inactive)
- GI50 [19]: > 100 µM (inactive)
- GI50 [20]: > 100 µM (inactive)
- GI50 [21]: > 100 µM (inactive)
- GI50 [22]: > 100 µM (inactive)
- GI50 [23]: > 100 µM (inactive)
- GI50 [24]: > 100 µM (inactive)
- GI50 [25]: > 100 µM (inactive)
- GI50 [26]: > 100 µM (inactive)
- GI50 [27]: > 100 µM
- GI50 [28]: > 100 µM (inactive)
- GI50 [29]: > 100 µM (inactive)
- GI50 [30]: > 100 µM (inactive)
- GI50 [31]: > 100 µM (inactive)
- GI50 [32]: > 100 µM (inactive)
- GI50 [33]: > 100 µM (inactive)
- GI50 [34]: > 100 µM (inactive)
- GI50 [35]: > 100 µM (inactive)
- GI50 [36]: > 100 µM (inactive)
- GI50 [37]: > 100 µM (inactive)
- GI50 [38]: > 100 µM (inactive)
- GI50 [39]: > 100 µM (inactive)
- GI50 [40]: > 74.8 µM (inactive)
- GI50 [41]: > 100 µM (inactive)
- GI50 [42]: > 100 µM (inactive)
- GI50 [43]: > 100 µM (inactive)
- GI50 [44]: > 84.1 µM (inactive)
- GI50 [45]: > 100 µM (inactive)
- GI50 [46]: > 100 µM (inactive)
- GI50 [47]: > 100 µM (inactive)
- GI50 [48]: > 100 µM (inactive)
- GI50 [49]: > 100 µM (inactive)
- GI50 [50]: > 100 µM (inactive)
- GI50 [51]: > 100 µM (inactive)
- GI50 [52]: > 100 µM (inactive)
- GI50 [53]: > 100 µM (inactive)
- GI50 [54]: > 100 µM (inactive)
- GI50 [55]: > 100 µM (inactive)
- GI50 [56]: > 100 µM (inactive)
- GI50 [57]: > 100 µM (inactive)

SMILES: CC(C)(C)OC(=O)NCC(=O)NC1CC=CCC1NC(=O)CNC(=O)OC(C)(C)C (stereo not drawn)
- GI50 [1]: > 100 µM (inactive)
- GI50 [2]: > 100 µM (inactive)
- GI50 [3]: > 100 µM (inactive)
- GI50 [4]: > 100 µM (inactive)
- GI50 [5]: > 100 µM (inactive)
- GI50 [6]: > 100 µM (inactive)
- GI50 [7]: > 100 µM (inactive)
- GI50 [58]: > 100 µM (inactive)
- GI50 [8]: > 100 µM (inactive)
- GI50 [9]: > 100 µM (inactive)
- GI50 [10]: > 100 µM (inactive)
- GI50 [11]: > 100 µM (inactive)
- GI50 [12]: > 100 µM (inactive)
- GI50 [13]: > 100 µM (inactive)
- GI50 [14]: > 100 µM (inactive)
- GI50 [15]: > 100 µM (inactive)
- GI50 [16]: > 100 µM (inactive)
- GI50 [17]: > 100 µM (inactive)
- GI50 [18]: > 100 µM (inactive)
- GI50 [19]: > 100 µM (inactive)
- GI50 [20]: > 100 µM (inactive)
- GI50 [21]: > 100 µM (inactive)
- GI50 [22]: > 100 µM (inactive)
- GI50 [23]: > 100 µM (inactive)
- GI50 [25]: > 100 µM (inactive)
- GI50 [27]: > 100 µM
- GI50 [28]: > 100 µM (inactive)
- GI50 [29]: > 100 µM (inactive)
- GI50 [30]: > 100 µM (inactive)
- GI50 [31]: > 100 µM (inactive)
- GI50 [32]: > 100 µM (inactive)
- GI50 [33]: > 100 µM (inactive)
- GI50 [34]: > 100 µM (inactive)
- GI50 [35]: > 100 µM (inactive)
- GI50 [36]: > 100 µM (inactive)
- GI50 [37]: > 100 µM (inactive)
- GI50 [38]: > 100 µM (inactive)
- GI50 [39]: > 100 µM (inactive)
- GI50 [40]: > 100 µM (inactive)
- GI50 [41]: > 100 µM (inactive)
- GI50 [42]: > 100 µM (inactive)
- GI50 [43]: > 100 µM (inactive)
- GI50 [44]: > 100 µM (inactive)
- GI50 [45]: > 100 µM (inactive)
- GI50 [59]: > 100 µM (inactive)
- GI50 [47]: > 100 µM (inactive)
- GI50 [48]: > 100 µM (inactive)
- GI50 [49]: > 100 µM (inactive)
- GI50 [50]: > 100 µM (inactive)
- GI50 [51]: > 100 µM (inactive)
- GI50 [52]: > 100 µM (inactive)
- GI50 [53]: > 100 µM (inactive)
- GI50 [54]: > 100 µM (inactive)
- GI50 [55]: > 100 µM (inactive)
- GI50 [56]: > 100 µM (inactive)
- GI50 [57]: > 100 µM (inactive)

SMILES: O=C1/C(=C/c2ccccc2S)N=C(c2ccccc2)N1c1nc2c(Cl)cc(Cl)cc2s1
- GI50 [1]: 31.7 µM (inactive)
- GI50 [2]: 27.8 µM (inactive)
- GI50 [4]: 20.4 µM (inactive)
- GI50 [5]: 21.8 µM (inactive)
- GI50 [6]: 17 µM (inactive)
- GI50 [7]: 23.9 µM (inactive)
- GI50 [8]: 26.8 µM (inactive)
- GI50 [9]: 23.5 µM (inactive)
- GI50 [10]: 21.9 µM (inactive)
- GI50 [11]: 32.6 µM (inactive)
- GI50 [12]: 18.3 µM (inactive)
- GI50 [13]: 24.3 µM (inactive)
- GI50 [14]: 32.5 µM (inactive)
- GI50 [15]: 24.7 µM (inactive)
- GI50 [16]: 28.9 µM (inactive)
- GI50 [17]: 19.5 µM (inactive)
- GI50 [18]: 30.1 µM (inactive)
- GI50 [19]: 17.7 µM (inactive)
- GI50 [21]: 17.7 µM (inactive)
- GI50 [22]: 22.3 µM (inactive)
- GI50 [23]: 22.6 µM (inactive)
- GI50 [24]: 25.9 µM (inactive)
- GI50 [25]: 23.7 µM (inactive)
- GI50 [26]: 11.6 µM (inactive)
- GI50 [27]: 31.1 µM
- GI50 [28]: 18.7 µM (inactive)
- GI50 [29]: 27.7 µM (inactive)
- GI50 [30]: 22.2 µM (inactive)
- GI50 [31]: 21 µM (inactive)
- GI50 [32]: 40.4 µM (inactive)
- GI50 [33]: 18.1 µM (inactive)
- GI50 [34]: 28.4 µM (inactive)
- GI50 [35]: 17.3 µM (inactive)
- GI50 [36]: 12.6 µM (inactive)
- GI50 [37]: 20.9 µM (inactive)
- GI50 [38]: 16.6 µM (inactive)
- GI50 [39]: 22.3 µM (inactive)
- GI50 [40]: 26.7 µM (inactive)
- GI50 [41]: 2.27 µM (inactive)
- GI50 [42]: 23.7 µM (inactive)
- GI50 [43]: 36.3 µM (inactive)
- GI50 [44]: 16.4 µM (inactive)
- GI50 [45]: 15.2 µM (inactive)
- GI50 [59]: 24.3 µM (inactive)
- GI50 [46]: 24 µM (inactive)
- GI50 [47]: 27.5 µM (inactive)
- GI50 [48]: 37.1 µM (inactive)
- GI50 [49]: 20.4 µM (inactive)
- GI50 [50]: 23.4 µM (inactive)
- GI50 [51]: 21.7 µM (inactive)
- GI50 [52]: 26.4 µM (inactive)
- GI50 [53]: 20.9 µM (inactive)
- GI50 [54]: 35.4 µM (inactive)
- GI50 [55]: 21.8 µM (inactive)
- GI50 [56]: 18.4 µM (inactive)
